Experiments:
[1] = tested on: Plasmodium falciparum; test: ST_JUDE: Plasmodium falciparum 3D7 EC50 (uM) as measured by SYBR green dye; assay type: functional, organism-based
[2] = tested on: Plasmodium falciparum; test: ST_JUDE: Plasmodium falciparum K1 EC50 (uM) as measured by SYBR green dye; assay type: functional, organism-based

| Structure (SMILES) | EC50 [1] | EC50 [2] |
| --- | --- | --- |
| CN(C)CCCNc1c2ccccc2nc2ccccc12 | 0.531 µM | 3.71 µM |
| CN(C)c1ccc(Nc2c3ccccc3nc3ccccc23)cc1 | 1.46 µM | 1.11 µM |
| CCN1CCN(Cc2c(O)ccc3c(=O)c(Oc4cc(C)cc(C)c4)c(C(F)(F)F)oc23)CC1 | 0.514 µM | 0.204 µM |
| CCOc1ccc(Nc2cc(C)nc(Nc3ccc(OCC)cc3)n2)cc1 | > 15 µM | > 15 µM |
| Cc1ccnc(NC(c2cccc(OCc3ccccc3)c2)c2ccc3cccnc3c2O)c1 (stereo unspecified) | 1.81 µM | 2.93 µM |
| CCN1/C(=C/c2cccc[n+]2C)Sc2ccc(C)cc21 | 0.738 µM | 0.436 µM |
| COc1ccccc1C1CC(c2ccccc2)=NN1C(=O)c1ccco1 (stereo unspecified) | 0.594 µM | 4.33 µM |
| CN(C(=O)c1cc2c(s1)-c1ccccc1S(=O)(=O)C2)c1cccc(Cl)c1 | 0.711 µM | 1.05 µM |
| COc1cccc(C2=C(C(C)=O)Sc3nncn3N2C(C)=O)c1 | 3.01 µM | 3.43 µM |
| COc1ccc(N2CCN(C(=S)Nc3ccccc3Cl)CC2C)cc1 (stereo unspecified) | 1.4 µM | 3.56 µM |
| Cc1ccc(-c2nc(C(=O)N(CCC#N)Cc3cccnc3)cs2)cc1F | 3.34 µM | 4.68 µM |
| CCc1nnc2n1NC(c1ccccc1)C(C(=O)Nc1ccccc1Cl)S2 (stereo unspecified) | > 15 µM | > 15 µM |
| CCN1CCN(CCCNC(=O)c2ccc3c(c2)sc2nc(-c4ccc(OC)cc4)cn23)CC1 | 0.577 µM | 1.56 µM |
| CC(C)(C)c1ccc(C(=O)Nc2nc3ccccc3s2)cc1 | > 15 µM | > 15 µM |
| CCc1ccc(C2C(C(=O)OC)=C(N)OC3=C2C(=O)CC(C)(C)C3)cc1 (stereo unspecified) | > 15 µM | > 15 µM |
| CC[n+]1c(C=C2C=CN(C)C=C2)ccc2cc(OC)ccc21 | > 15 µM | 2.05 µM |
| C=CCn1c(C)c(C=C2C(=O)NC(=S)NC2=O)c2ccccc21 | 1.69 µM | 1.4 µM |
| COC(=O)c1ccc(OCC2c3cc(OC)c(OC)cc3CCN2C(=O)Nc2ccccc2)cc1 (stereo unspecified) | 4.83 µM | 2.93 µM |
| CC(C)(C)c1ccc(C(=O)Nc2c3c(nn2-c2cccc(Cl)c2)CSC3)cc1 | > 15 µM | > 15 µM |
| CCOc1cccc(C2CC(=O)NC3=C2C(=O)CC(c2ccccc2Cl)C3)c1 (stereo unspecified) | 3.72 µM | 3.11 µM |
| Cc1ccc2nc(-c3cccnc3)cc(C(=O)Nc3ccc(S(=O)(=O)NC(C)(C)C)cc3)c2c1 | > 15 µM | > 15 µM |
| CCCOc1cc(S(=O)(=O)n2ccnc2)ccc1Cl | > 15 µM | > 15 µM |

| Structure (SMILES) | EC50 [1] | EC50 [2] |
| --- | --- | --- |
| Cc1cc(Br)ccc1OCCCCn1ccnc1 | > 15 µM | > 15 µM |
| COc1ccc(C)cc1NC(=S)N1CCN(c2ccc([N+](=O)[O-])cc2)CC1 | 1.34 µM | 1.92 µM |
| COC(=O)CNC(c1ccccc1)c1cc(Br)ccc1NC(=O)c1ccc(OC)cc1 (stereo unspecified) | 4.22 µM | 4.33 µM |
| CCN1CCN(c2cc(C)c3cc(NC(=S)NCCCN4CC(C)CC(C)C4)ccc3n2)CC1 (stereo unspecified) | 5.34 µM | > 15 µM |
| Cc1ccc2c(c1)N(C)/C(=C/c1cccc[n+]1CCO)S2 | 1.78 µM | 1.56 µM |
| Nc1nc(Nc2ccc(Cl)c(Cl)c2)nc2ccccc12 | 2.22 µM | > 15 µM |
| O=C(N/N=C/c1cc(Br)cc([N+](=O)[O-])c1O)NC12CC3CC(CC(C3)C1)C2 | > 15 µM | 0.959 µM |
| COc1ccc(C(O)(CCC(C)C)C(CN2CCOCC2)c2ccc(Cl)cc2)cc1 (stereo unspecified) | 4.61 µM | 3.5 µM |
| COC(=O)c1ccc(Nc2nc(NCc3ccccc3)c3ccccc3n2)cc1 | 1.11 µM | > 15 µM |
| CCCC(=O)NC(c1ccc(OC)cc1)c1ccc2cccnc2c1O (stereo unspecified) | 1.65 µM | 2.65 µM |
| Cc1ccc(S(=O)(=O)NCC(c2cccnc2)N2CCN(c3ccc(F)cc3)CC2)cc1 (stereo unspecified) | > 15 µM | 9.43 µM |
| Cc1c(C(=O)Nc2ccc(Cl)cc2Cl)cccc1[N+](=O)[O-] | > 15 µM | > 15 µM |
| Oc1c(CN2CCCCC2)cc(Br)c2cccnc12 | 3.42 µM | 2.32 µM |
| COc1cc(CNc2cccc(Cl)c2)cc(I)c1OC | 3.96 µM | 4.1 µM |
| COC(=O)c1c(S(=O)(=O)NCc2ccccc2)sc2c1CCN(Cc1ccc(OC)cc1)C2 | > 15 µM | > 15 µM |
| Cc1c(Cl)cccc1NC(=O)Nc1ccc(Cl)c(Cl)c1 | 4.13 µM | > 15 µM |
| Cc1ccc2nc3c(cc(C(=O)NC(C)c4ccccc4)c(=N)n3CC3CCCO3)c(=O)n2c1 (stereo unspecified) | > 15 µM | > 15 µM |
| CCCN(CCC)CCCNC(=O)c1cc2c(-c3cccc(OC)c3)nn(C)c2s1 | 2.15 µM | 7.45 µM |
| CCCC1=Nc2cc(C(=O)N3CCN(C(=O)OCC)CC3)ccc2Sc2ccc(C)cc21 | > 15 µM | > 15 µM |
| Oc1ccc(Br)cc1CN1CCN(Cc2cccc(Cl)c2)CC1 | 1.79 µM | 0.338 µM |
| O=C(Nc1cccc(Cl)c1)C1c2ccccc2C(=O)N(C2CCCC2)C1c1cccs1 (stereo unspecified) | 0.297 µM | 0.326 µM |
| COc1ccc(-c2cc(=O)oc3c4c(ccc23)OCN(Cc2ccc(F)cc2)C4)cc1 | 5.21 µM | 1.06 µM |

| Structure (SMILES) | EC50 [1] | EC50 [2] |
| --- | --- | --- |
| COc1ccc(CN2CCCN(C)CC2)cc1OCCC1CCCCN1C(=O)/C=C/c1cccs1 (stereo unspecified) | 3.98 µM | 1.48 µM |
| CCN(CC)S(=O)(=O)c1ccc(C(=O)NNc2nc3c(C)cccc3s2)cc1 | > 15 µM | > 15 µM |
| CC(C)Cn1c2c(c(=N)c3c1CCC3)CCCC2 | 2.25 µM | 3.78 µM |
| O=C(NCCc1cccc(C(F)(F)F)c1)Nc1cc(C(F)(F)F)ccc1Cl | 3.09 µM | 2.37 µM |
| CCN1CCN(CCCNC(=O)c2ccc3c(c2)sc2nc(-c4ccc(C)cc4)cn23)CC1 | 1.14 µM | 1.89 µM |
| CCOc1ccc(Nc2nc(NCc3ccco3)c3ccccc3n2)cc1 | 1.19 µM | 2.64 µM |
| COc1ccccc1OCCCCN1CCCC1 | > 15 µM | > 15 µM |
| CCOc1ccc(NC2=C(NCCO)C(=O)c3ccccc3C2=O)cc1 | 3.54 µM | 4.88 µM |
| Oc1ccc(Cl)cc1CN1CCN(Cc2ccccc2)CC1 | 1.02 µM | 0.486 µM |
| Cc1ccc(NC(=O)c2ccc(Br)o2)c(Br)c1 | > 15 µM | > 15 µM |
| Cc1ccc(-c2cc(-c3cc(Cl)ccc3O)[nH]n2)cc1 | 5.01 µM | 2.92 µM |
| CCOC(=O)CCc1c(C)c2cc3c(c(C)c2oc1=O)OCN(Cc1ccccc1OC)C3 | 3.04 µM | 1.22 µM |
| Cc1ccc(CN2CCCN(Cc3ccc(F)cc3)C2c2ccccc2F)cc1 (stereo unspecified) | 4.18 µM | > 15 µM |
| COC(=O)c1c(S(=O)(=O)N2CCCN(C)CC2)sc2c1CCN(CC(C)c1ccccc1)C2 (stereo unspecified) | > 15 µM | > 15 µM |
| CCCN1C(=O)c2[nH]nc(-c3c(C)cc(C)cc3O)c2C1c1ccc(OC)c(OC)c1 (stereo unspecified) | > 15 µM | > 15 µM |
| Oc1ccc(Nc2nc(NCc3ccccc3)c3ccccc3n2)cc1 | 0.203 µM | > 15 µM |
| Cc1nn(-c2ccccc2)c2ncc(C(=O)Nc3cccc(Cl)c3)c(O)c12 | > 15 µM | 4.31 µM |
| CCN(CC)CCNC(=O)c1ccc2c(c1)sc1nc(-c3ccc(F)cc3)cn12 | 0.974 µM | 1.92 µM |
| Oc1c(C(Nc2ccccn2)c2ccc(Cl)c(Cl)c2)ccc2cccnc12 (stereo unspecified) | 1.34 µM | 4.36 µM |
| CCO/C(O)=C1\C(C)=NC2=C(C(=O)CC(c3ccccc3)C2)C1c1ccc(Cl)cc1 (stereo unspecified) | 3.85 µM | 6.69 µM |
| Cc1ccc2ccc(C(Nc3ccccn3)c3ccccc3Br)c(O)c2n1 (stereo unspecified) | 1.49 µM | 1.32 µM |
| CCOc1ccc(NC(=O)CSc2nncc(O)n2)cc1 | 0.734 µM | 0.994 µM |

| Structure (SMILES) | EC50 [1] | EC50 [2] |
| --- | --- | --- |
| CCC(=O)N(Cc1ccccn1)c1nc2ccccc2s1 | > 15 µM | > 15 µM |
| O=C(O)c1cccc(NC2=C(N3CCCCC3)C(=O)c3ccccc3C2=O)c1 | > 15 µM | 4.82 µM |
| CCc1cc(-c2[nH]nc(C)c2Oc2ccc(Cl)cc2)c(O)cc1OC | 4.85 µM | 3.2 µM |
| CCCN1C(=O)c2[nH]nc(-c3c(C)cc(C)cc3O)c2C1c1cccc(OC)c1 (stereo unspecified) | 5.09 µM | 2.68 µM |
| CCc1c(C)c2cc3c(c(C)c2oc1=O)OCN(CCc1ccccc1OC)C3 | 0.757 µM | 0.223 µM |
| CCOC(=O)C1=C(C)N=c2s/c(=C\c3ccc(O)cc3)c(=O)n2C1c1ccc(OC)c(OC)c1 (stereo unspecified) | > 15 µM | 1.4 µM |
| C#CC[n+]1ccn2c(C)ccc2c1C | 5.58 µM | 1.69 µM |
| Cc1nc2sc(C(c3ccc(Cl)c(Cl)c3)N3CCN(C)CC3)c(O)n2n1 (stereo unspecified) | > 15 µM | > 15 µM |
| COc1[nH]cnc2c3cc(C)ccc3nc1-2 | > 15 µM | > 15 µM |
| CCC1CCCCN1CC(O)COCCC12CC3CC(CC(C3)C1)C2 (stereo unspecified) | 7.2 µM | 2.68 µM |
| Cc1c(C(=O)NCCCn2ccnc2)sc2nc(-c3cccc([N+](=O)[O-])c3)cn12 | > 15 µM | 9.22 µM |
| CCOc1ccc(NC(=O)C2Sc3nnc(-c4ccccc4)n3NC2c2ccc(OC)cc2)cc1 (stereo unspecified) | > 15 µM | > 15 µM |
| CCC(=O)NC(c1ccccc1OC)c1ccc2cccnc2c1O (stereo unspecified) | 2.27 µM | 4.28 µM |
| COc1ccc2ncc(C(=O)c3ccccc3)c(N3CCN(C)CC3)c2c1 | > 15 µM | > 15 µM |
| O=C(N/N=c1/oc2ccc(Br)cc2cc1-c1nc2ccccc2[nH]1)c1ccncc1 | 4.71 µM | > 15 µM |
| CCOC(=O)c1cnc2c(C)c(C)ccc2c1Nc1cc([N+](=O)[O-])ccc1O | > 15 µM | > 15 µM |
| Oc1c(CN2CCN(Cc3ccc4cccnc4c3O)CC2)ccc2cccnc12 | > 15 µM | 6.32 µM |
| Cc1ccc(Nc2cc(C)nc(-n3cc([N+](=O)[O-])cn3)n2)cc1 | 7.25 µM | > 15 µM |
| Clc1cccc(/C=N/Nc2[nH]cnc3ncnc2-3)c1 | 2.31 µM | 3.65 µM |
| O=C(CSc1ccc2nnc(-c3cccc(F)c3)n2n1)Nc1cccc(F)c1 | > 15 µM | 1.08 µM |
| CCOc1ccc(C2c3cccn3CCN2C(=O)Nc2cccc(C)c2)cc1 (stereo unspecified) | > 15 µM | > 15 µM |
| Cn1c(-c2ccc([N+](=O)[O-])cc2)[n+](C)c2ccccc21 | > 15 µM | 2.67 µM |

From ChEMBL document CHEMBL1154198, “Chemical genetics of Plasmodium falciparum” (Nature, 2010)
